Results taken from US10048562B2, “Electrophoretic fluid” (Merck Patent GmbH, priority 2012, dated 2018).

assay: Saturation of dye in decane (solubility); format: physicochemical; conditions: saturated solution in decane

Row | SMILES | Saturation wt % in decane [wt %]
1 | CCCCCCCCCCCCCCCCCCN(CCCCCCCCCCCCCCCCCC)c1cc(NC(C)=O)c(/N=N/c2c(C#N)cc([N+](=O)[O-])cc2C#N)cc1OC [Dye 1] | 0.003
2 | CCCCCCCCN(CCCCCCCC)c1ccc(/N=N/c2snc(C)c2C#N)c(NC(C)=O)c1 [Dye 4, N-(2-((4-Cyano-3-methylisothiazol-5-yl)diazenyl)-5-(dioctylamino)phenyl)acetamide] | 0.19
3 | CCCCc1ccc(/N=N/c2ccc(N(CCCC)CCCC)cc2)cc1 [Dye 7] | 9.95

Further lines, results first:

Row | Saturation wt % in decane [wt %] | SMILES
4 | 1.03 | CCCCCCCCCCCCCCc1ccc(/N=N/c2c(C)c(C#N)c(=O)n(CC(CC)CCCC)c2O)cc1 (stereo not drawn) [Dye 5, (E)-1-(2-Ethylhexyl)-6-hydroxy-4-methyl-2-oxo-5-((4-tetradecylphenyl)diazenyl)-1,2-dihydropyridine-3-carbonitrile]
5 | 3.72 | CCCCCCCCCCCCCCc1ccc(/N=N/c2c(C)cc(=O)n(CC(CC)CCCC)c2O)cc1 (stereo not drawn) [Dye 6, (E)-1-(2-ethylhexyl)-6-hydroxy-4-methyl-5-((4-tetradecylphenyl)diazenyl)pyridin-2(1H)-one]
6 | 10.50 | CCCCCCCCN(CCCCCCCC)c1ccc(/N=N/c2ccc([N+](=O)[O-])cc2)c(C)c1 [Dye 8, (E)-3-Methyl-4-((4-nitrophenyl)diazenyl)-N,N-dioctylaniline]
